The numbers were not newly measured in patent US8440668B2, “Beta-amino heterocyclic dipeptidyl peptidase inhibitors for the treatment of type 2 diabetes” (Merck Sharp & Dohme Corp, priority 2001, dated 2013), which cites them from elsewhere.

The test system of one series is rats. The note with it: Transplantation 63, 1495-1500 (1997).
The next series relates to mouse. The note with it: cyclophosphamide-induced neutropenia, WO 99/56753.
Another series addresses T1, DP-IV (Homo sapiens, UniProt P27487).
T1 construct: GRF is rapidly degraded in plasma to GRF[3-44]; from tissue

T1 sequence (P27487 39-766 limits assumed): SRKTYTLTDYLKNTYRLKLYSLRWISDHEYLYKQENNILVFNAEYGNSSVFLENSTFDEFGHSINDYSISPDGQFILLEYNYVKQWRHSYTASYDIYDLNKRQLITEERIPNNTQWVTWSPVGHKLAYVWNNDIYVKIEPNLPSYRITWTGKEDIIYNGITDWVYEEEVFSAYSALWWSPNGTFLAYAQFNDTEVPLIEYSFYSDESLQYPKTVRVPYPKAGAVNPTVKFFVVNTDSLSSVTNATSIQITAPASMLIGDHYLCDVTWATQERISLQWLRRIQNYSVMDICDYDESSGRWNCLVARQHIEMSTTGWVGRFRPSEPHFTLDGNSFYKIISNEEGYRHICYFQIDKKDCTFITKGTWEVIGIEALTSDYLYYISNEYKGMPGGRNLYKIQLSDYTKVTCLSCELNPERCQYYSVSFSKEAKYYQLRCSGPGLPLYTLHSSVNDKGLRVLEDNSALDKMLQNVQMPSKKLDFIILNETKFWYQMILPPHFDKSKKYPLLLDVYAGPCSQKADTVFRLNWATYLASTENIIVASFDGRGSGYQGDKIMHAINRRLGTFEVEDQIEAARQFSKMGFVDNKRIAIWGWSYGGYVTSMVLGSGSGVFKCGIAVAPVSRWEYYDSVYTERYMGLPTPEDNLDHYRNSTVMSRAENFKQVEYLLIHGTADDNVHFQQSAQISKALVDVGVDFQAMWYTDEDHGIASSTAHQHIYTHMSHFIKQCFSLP

On to `CC(C)N1CCC(c2ccccc2)(c2ccccc2)CC1` [Prodipine, Pro-Pro-diphenyl-phosphonate], for which, in the series on rats, the cardiac allograft survival entry is reported as “double cardiac allograft survival in rats from day 7 to day 14”.

`CC(C)[C@H](N)C(=O)N1CCC[C@H]1B(O)O` [Val-Boro-Pro]: the hematopoiesis result with mouse is listed as “stimulated hematopoiesis”. As to diprotin A, the “degradation of GRF in plasma to GRF[3-44]” value at DP-IV is listed as “prevented”.
